In patent publication US9902761B2, “Polypeptides, nucleic acids and uses thereof” (AGENCY FOR SCIENCE, TECHNOLOGY AND RESEARCH, priority 2013, dated 2018):
“Also recorded” adds a separate entry of the source.

Columns and labels:
[1] = system: hESCs; test: xCELLigence real time growth assay, cell counts and colony size of hESCs; format: cell-based, human
Protocol: Feeder-free hESCs were cultured in clumps in mTSER1 (Stem Cell Technologies) on Matrigel (BD 354277).
(§1) hESCs were dissociated into single cells using Accutase (Stem Cell Technologies) and plated in the presence of 10 μM Y-27632 (ROCK inhibitor) for 12 hours (Watanabe et al., 2007).
For xCELLigence real time growth assays, 4000 cells were plated per well of an E-plate (ACEA Biosciences) with media changes every 48 hours.
Recombinant ELA was added at 2.5 uM (or 10 μg/ml). Cell cycle studies were performed with Click-iT EDU staining kit (Invitrogen) and by performing a double thymidine block (2.5 mM thymidine; 16 hour block, 8 hour release, 16 hour block) followed by DAPI staining for DNA content at the indicated times following release.

[2] = system: human chondrosarcoma cell line; test: growth and survival effect of recombinant ELA on chondrosarcoma cells; format: cell-based
Protocol: Primary human fibroblasts, SW1353 chondrosarcoma (ATCC) and NTERA2 hECs (a gift from Barbara Knowles and Davor Solter) were grown in Dulbecco's modified Eagle's medium (DMEM) with 10% FBS (Hyclone), 2 mM GlutaMAX™ (Invitrogen) and 1 mM sodium pyruvate. For xCELLigence real time growth assays, 4000 cells were plated per well of an E-plate (ACEA Biosciences) with media changes every 48 hours. […] Cell cycle studies were performed with Click-iT EDU staining kit (Invitrogen) and by performing a double thymidine block (2.5 mM thymidine; 16 hour block, 8 hour release, 16 hour block) followed by DAPI staining for DNA content at the indicated times following release.

[3] = system: hESCs; test: qPCR of mesendodermal markers in hESCs; format: cell-based, human
Protocol: After the indicated time periods, embryoid bodies were harvested and RNA extracted using RNeasy kit ([…]). qPCR reactions were carried out using either Universal FastSlart SYBR Green Mastermix (Roche) or using the Universal Probe Library system (Roche) in tandem with Taqman Fast Mastermix (Invitrogen). Primer sequences can be found in Table E1.

[4] = system: hESCs; test: FACS of stem cell surface markers SSEA3 and TRA-1-60 in hESCs; format: cell-based, human
[5] = molecular target: CXCR4 (Homo sapiens, UniProt P61073); test: PathHunter β-Arrestin CXCR4 assay, activation; format: cell-based; conditions: β-Arrestin recruitment
Chain of CXCR4 (P61073 whole entry, the tested form may be a part): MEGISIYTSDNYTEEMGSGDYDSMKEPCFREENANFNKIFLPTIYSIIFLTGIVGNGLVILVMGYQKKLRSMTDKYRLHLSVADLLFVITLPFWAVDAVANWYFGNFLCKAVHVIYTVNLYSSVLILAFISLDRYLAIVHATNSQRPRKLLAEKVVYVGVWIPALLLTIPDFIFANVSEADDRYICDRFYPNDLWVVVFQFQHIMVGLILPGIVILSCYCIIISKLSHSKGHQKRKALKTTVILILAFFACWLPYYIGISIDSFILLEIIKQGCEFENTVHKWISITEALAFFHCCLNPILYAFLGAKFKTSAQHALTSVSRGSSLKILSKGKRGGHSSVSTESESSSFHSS
Protocol: To detect activation of CXCR4 by ELA or SDF-1, recombinant ELA or SDF-1 were added in increasing concentrations for 90-180 minutes to cells stably expressing CXCR4 coupled to a downstream reporter. β-Arrestin recruitment was measured using the PathHunter® β-Arrestin CXCR4 assay (DiscoveRx). Interaction of CXCR4 with Arrestin was detected by Enzyme Fragment Complementation (EFC) between two complementary domains of β-galactosidase (β-Gal), one fused to CXCR4 and the other fused to β-Arrestin. β-Arrestin recruitment to CXCR4 results in complementation of the two domains to generate β-Gal activity. % Ac ? vity=100%×(mean RLU of test sample−mean RLU of vehicle control)/(mean MAX control ligand−mean RLU of vehicle control). To detect antagonism of SDF-1 by ELA, the assay was run in antagonist mode by measuring the EC50 of ELA in the presence of SDF-1 at EC80 concentration. To detect synergism between ELA and SDF-1, the assay was run in positive allosteric mode by measuring the EC50 of ELA in the presence of SDF-1 at EC20 concentration.

[6] = system: HIV-1 NL43; test: HIV inhibition assay in P4C5 HeLa cells (β-gal activity); format: cell-based; conditions: CXCR4-tropic strain
[7] = system: PI3K/AKT pathway; test: signaling pathway assay in starved hESCs pulsed with peptide (SDS-PAGE, western); format: cell-based, human
Protocol: To assay the signaling pathway activated by ELA, hESCs were dissociated and plated in mTSER1 for 48 hours, followed by a 2-hour starvation in DMEM/F12. Synthetically produced ELA or ELA^RR>GG peptides, dialyzed against PBS to remove any residual synthesis buffers, were added at a final concentration of 5 uM (or as indicate(D) for the indicated period of time. Where applicable, PI3K inhibitors LY294002 (5 uM) and Wortmannin (1 uM) were added 30 minutes before pulsing with ELA peptides. Cells were lysed with PhosphoSafe™ (Millipore) for SDS-PAGE.

[8] = system: hESCs; test: insulin replacement assay in hESCs; format: cell-based, human
Protocol: For insulin replacement assays, SHEF4 or HESC3 hESCs were cultured in TSER-E5 (Stem Cell Technologies) supplemented with TGF-β (5 ng/ml, R&D Systems) and bFGF (100 ng/ml, Invitrogen) with and without INSULIN (10 ug/ml, SIGMA).

[9] = system: hESCs; test: stress-induced apoptosis of hESCs by ionizing radiation; format: cell-based, human
[10] = system: hESCs; test: stress-induced apoptosis of hESCs by ActinomycinD; format: cell-based, human
Protocol: To induce apoptosis, hESCs were treated with the indicated doses of ActinomycinD (Sigma) or ionizing radiation followed by Aqueous One Cell Titer (Promega) or CASPASE GLO3/7 (Promega) assays 12 hours post-treatment.

[11] = system: hESCs; test: survival of hESCs after single-cell dissociation (anoikis); format: cell-based, human; conditions: with or without Y-27632
Protocol: as §1

[12] = myocardial ischaemia-reperfusion injury, APELIN experiments repeated with ELABELA; format: in vivo; conditions: administered during reperfusion
Source text: Peptides 2009; 30:1144-52. • Simpkin J C, Yellon D M, Davidson S M, Lim S Y, Wynne A M, Smith C C. […] Basic Res Cardiol 2007; 102:518-28.

[13] = heart failure, APELIN experiments repeated with ELABELA; conditions: in vivo
Source text: Nature 2012 Aug. […] J Clin Invest. 2013 Nov. 1.

[14] = pulmonary arterial hypertension, APELIN experiments repeated with ELABELA; conditions: in vivo
Source text: Am J Physiol Heart Circ Physiol 2009; 296:H2007-14.

[15] = erectile dysfunction, APELIN experiments repeated with ELABELA; conditions: in vivo
Source text: J Sex Med. 2013 Apr. 11. doi: 10.11 l/jsm.12158.

[16] = 3 hours after 1 Gray of γ irradiation

QRPVNLTMRRKLRKHNCLQRRCMPLHSRVPFP [ELA]
rescue of the growth of shELA hESCs ([1]; addition of recombinant peptide to shELA hESCs): entirely rescued to normal levels | concentration range in which the recombinant peptide is bioactive ([1]; hESCs): bioactive only in the μM range; also recorded: works in the μM range | activity of recombinant ELA on human chondrosarcoma cell line [2]: exerted activity only on hESCs cultures and no other differentiated cell types | expression of mesendodermal genes GATA6, GATA4, FOXA2, EOMES and BRA [3]: consistently upregulated | levels of cell surface markers SSEA3 and TRA-1-60 [4]: unchanged levels | activation of CXCR4 [5]: cannot activate CXCR4 | inhibition of infection with HIV-1 NL43 [6]: inhibits infection | concentration at which ELA inhibits HIV ([6]; HeLa cells, B-Gal activity after 36-48 hrs of infection): 10 to 40 µM | activation of ERK and SMAD2 [7]: little to no activation of ERK and SMAD2 | activation of PI3K/AKT and mTORC1 pathway (p70S6K phosphorylation) [7]: activates the PI3K/AKT pathway and subsequently the mTORC1 pathway | phosphorylation of AKT at serine 473 and PRAS40 at threonine 246 ([7]; 5 uM peptide after 2-hour starvation): sufficient to trigger the immediated phosphorylation of AKT at serine 473 | growth rescue of shELA hESCs under INSULIN deprivation [8]: intermediate growth rescue | rescue of the irradiation sensitivity of shELA hESCs [9]: rescued this phenotype | activated CASPASE 3 after irradiation [9, 16]: almost undetectable | γH2AX foci after irradiation [9, 16]: comparable numbers of γH2AX foci | activated CASPASE3/7 and CASPASE 9 after ActinomycinD [10]: entirely suppressed | resistance or sensitivity to ActinomycinD ([10]; nanomolar concentrations of ActinomycinD): conferred significant resistance to control hESCs and completely rescued shELA hESCs | survival following dissociation (anoikis) [11]: able to increase survival following dissociation | infarct size [12]: significantly decrease infarct size | protection against heart failure [13]: able to provide protection against heart failure | symptoms of pulmonary arterial hypertension [14]: alleviates symptoms of pulmonary arterial hypertension | erectile function [15]: significant restoration of erectile function
